In the NIST ThermoML archive (doi:10.1016/j.jct.2004.07.004):

Test: mn = molality of the nth substance listed, in mol/kg
Details: 100 kPa, Liquid

CC(C)C[C@H](NC(=O)[C@@H]1CCCN1)C(=O)O [proline-leucine] + O
mass density [kg/m3]
Details	283.15 K	288.15 K	293.15 K	298.15 K	303.15 K	308.15 K
m1 = 0.00191	–	–	998.299	–	–	994.122
m1 = 0.0025	–	999.209	998.324	997.166	–	994.156
m1 = 0.00255	–	–	–	–	995.771	–
m1 = 0.0035	999.851	999.261	998.368	997.215	–	994.198
m1 = 0.00399	–	999.283	998.394	–	–	–
m1 = 0.0045	999.901	999.303	998.416	997.251	995.856	994.246
m1 = 0.00505	999.956	999.356	998.452	–	–	994.278
m1 = 0.00549	–	999.353	998.462	997.3	995.925	994.294
m1 = 0.00602	1000	999.407	998.502	997.35	995.943	994.322
m1 = 0.00649	–	–	998.533	997.374	995.96	994.345
m1 = 0.00709	1000.06	999.445	998.552	997.381	–	–
m1 = 0.00748	–	999.48	998.581	997.416	995.999	994.392
m1 = 0.00776	1000.09	–	–	–	–	–
m1 = 0.00833	–	999.516	998.63	–	996.05	994.433
m1 = 0.00849	–	999.544	998.633	997.468	996.044	994.436
m1 = 0.00904	1000.16	999.542	998.644	–	–	–
m1 = 0.00949	–	999.594	998.69	997.521	996.091	–
m1 = 0.01004	–	999.608	998.704	997.541	996.128	994.51
m1 = 0.0105	1000.24	999.641	998.74	997.562	996.136	–
m1 = 0.01084	1000.25	999.633	–	997.57	–	994.545
m1 = 0.01148	1000.3	999.691	998.787	997.614	996.183	–
